From US6677368B2, “4-aryl substituted indolinones” (Sugen, Inc., priority 2000, dated 2004) come the findings set out here.

Where only a bound is given, the exact number is not on record here.

Common to all, as to assay type: biochemical
For one assay, the target named is T1, PDGFR (UniProt P09619).
T1 construct: PDGFR-β expressing NIH 3T3 cell lysate (SUGEN, Inc.)
Put plainly: PDGFR bioassay (ELISA, in vitro kinase activity). As to conditions: PDGFR-β expressing NIH 3T3 cell lysate, 20 μM ATP. On the procedure:
This assay is used to the in vitro kinase activity of PDGFR in an ELISA assay.
1. Corning 96-well ELISA plates
2. 28D4C10 monoclonal anti-PDGFR antibody (SUGEN, Inc.).
5. Blocking Buffer (same as for EGFR bioassay).
6. PDGFR-β expressing NIH 3T3 cell lysate (SUGEN, Inc.).
11. Kinase buffer phosphorylation mix: for 10 ml, mix 250 μl 1M TRIS, 200 μl 5M NaCl, 100 μl 1M MnCl2 and 501l 100 mM Triton X-100 in enough dH2O to make 10 ml.
12. NUNC 96-well V bottom polypropylene plates.
14. Rabbit polyclonal anti-phosphotyrosine serum (SUGEN, Inc.).
15. Goat anti-rabbit IgG peroxidase conjugate (Biosource Cat. No. ALI0404).
17. Hydrogen peroxide, 30% solution.
1. Coat Corning 96 well ELISA plates with […] 28D4C 10 in 100 μl PBS per well, hold overnight at 4° C.
2. Remove unbound 28D4C10 from wells by inverting plate to remove liquid. Wash 1× with dH2O. Pat the plate on a paper towel to remove excess liquid.
3. Add 150 μl of Blocking Buffer to each well. Incubate for 30 min. at room temperature with shaking.
4. Wash plate 3× with deionized water, then once with TBST. Pat plate on a paper towel to remove excess liquid and bubbles.
5. Dilute lysate in HNTG (10 μg lysate/100 μl HNTG).
6. Add 100 μl of diluted lysate to each well. Shake at room temperature for 60 min.
7. Wash plates as described in Step 4.
8. Add 80 μl working kinase buffer mix to ELISA plate containing captured PDGFR.
9. Dilute test compound 1:10 in TBS in 96-well polypropylene plates.
10. Add 10 μl diluted test compound to -ELISA plate. To control wells, add 10 μl TBS+10% DMSO. Incubate with shaking for 30 minutes at room temperature.
11. Add 10 μl ATP directly to all wells except negative control well (final well volume should be approximately 100 μl with 20 μM ATP in each well.) Incubate 30 minutes with shaking.
12. Stop reaction by adding 10 μl of EDTA solution to each well.
13. Wash 4× with deionized water, twice with TBST.
14. Add 100 μl anti-phosphotyrosine (1:3000 dilution in TBST) per well.
Incubate with shaking for 30-45 min. at room temperature.
16. Add 100 μl Biosource Goat anti-rabbit IgG peroxidase conjugate (1:2000 dilution in TBST) to each well. Incubate with shaking for 30 min. at room temperature.
18. Add 100 μl of ABTS/H2O2 solution to each well.
19. Incubate 10 to 30 minutes with shaking. Remove any bubbles.
20. If necessary stop reaction with the addition of 100 μl 0.2 M HCl per well.
21. Read assay on Dynatech MR7000 ELISA reader with test filter at 410 nM and reference filter at 630 nM.

The next assay concerns the target P38 (Homo sapiens, UniProt Q16539). Put plainly: P38 kinase inhibition.
The next assay addresses FGFR1 (Homo sapiens, UniProt P11362). Kind of assay: FGFR1 bioassay (ELISA, in vitro kinase activity). The settings on record: purified GST-FGFR1, poly(Glu-Tyr) substrate. On the procedure: This assay is used to measure the in vitro kinase activity of FGF1-R in an ELISA assay.
1. Costar 96-well ELISA plates (Corning Catalog #3369).
2. Poly(Glu-Tyr) (Sigma Catalog #P0275).
4. 50 mM Hepes Buffer Solution.
5. Blocking Buffer (5% BSA/PBS).
6. Purified GST-FGFR1 (SUGEN, Inc.)
7. Kinase Dilution Buffer. Mix 500 μl 1M Hepes (GIBCO), 20 μl 5% BSA/PBS, 10 μl 100 mM sodium orthovanadate and 50 μl 5M NaCl.
9. ATP/MnCl2 phosphorylation mix: mix 20 μL ATP, 400 μL 1M MnCl2 and 9.56 ml dH2O.
10. NUNC 96-well V bottom polypropylene plates (Applied Scientific Catalog #AS-72092).
12. 0.05% TBST Add 500 μL TWEEN to 1 liter TBS.
13. Rabbit polyclonal anti-phosphotyrosine serum (SUGEN, Inc.).
14. Goat anti-rabbit IgG peroxidase conjugate (Biosource, Catalog #ALI0404).
1. Coat Costar 96 well ELISA plates with 1 μg per well Poly(Glu-Tyr) in 100 μl PBS. Store overnight at 4° C.
2. Wash coated plates once with PBS.
3. Add 150 μL of 5%BSA/PBS Blocking Buffer to each well. Incubate, with shaking, for 1 hr at room temperature.
4. Wash plate 2× with PBS, then once with 50 mM Hepes. Pat plates on a paper towel to remove excess liquid and bubbles.
5. Add 25 μL of 0.4 mM test compound in 4% DMSO or 4% DMSO alone (controls) to plate.
6. Dilute purified GST-FGFR1 in Kinase Dilution Buffer (5 ng kinase/50 μl KDB/well).
7. Add 50 μL of diluted kinase to each well.
8. Start kinase reaction by adding 25 μl/well of freshly prepared ATP/Mn++ (0.4 ml 1M MnCl2, 40 μL 10 mM ATP, 9.56 ml dH2O), freshly prepared).
9. Stop reaction with 25 μL of 0.5M EDTA.
10. Wash plate 4× with fresh TBST.
11. Make up Antibody Dilution Buffer: For 50 ml, mix 5 ml of 5% BSA, 250 μl of 5% milk and 50 μl of 100 mM sodium vanadate, bring to final volume with 0.05% TBST.
12. Add 100 μl per well of anti-phosphotyrosine (1:10000 dilution in ADB). Incubate, with shaking for 1 hr. at room temperature.
14. Add 100 μl per well of Biosource Goat anti-rabbit IgG peroxidase conjugate (1:6000 dilution in ADB). Incubate, with shaking for 1 hr. at room temperature.
15. Wash as in step 10 and then with PBS to remove bubbles and excess TWEEN.
16. Add 100 μl of ABTS/H2O2 solution to each well.
17. Incubate, with shaking, for 10 to 20 minutes. Remove any bubbles.
18. Read assay on Dynatech MR7000 ELISA reader: test filter at 410 nM, reference filter at 630 nM.

P38, sequence (Q16539 whole entry): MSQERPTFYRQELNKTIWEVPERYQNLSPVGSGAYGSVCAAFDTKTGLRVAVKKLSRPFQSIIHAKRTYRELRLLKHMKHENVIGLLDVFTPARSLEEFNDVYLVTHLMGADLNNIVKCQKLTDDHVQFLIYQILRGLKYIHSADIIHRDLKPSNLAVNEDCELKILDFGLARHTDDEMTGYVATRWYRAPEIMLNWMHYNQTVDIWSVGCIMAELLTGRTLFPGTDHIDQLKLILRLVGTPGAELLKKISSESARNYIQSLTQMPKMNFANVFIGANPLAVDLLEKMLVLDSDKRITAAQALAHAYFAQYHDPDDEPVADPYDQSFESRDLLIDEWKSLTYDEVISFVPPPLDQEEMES
FGFR1, sequence (P11362 22-822, species assumed): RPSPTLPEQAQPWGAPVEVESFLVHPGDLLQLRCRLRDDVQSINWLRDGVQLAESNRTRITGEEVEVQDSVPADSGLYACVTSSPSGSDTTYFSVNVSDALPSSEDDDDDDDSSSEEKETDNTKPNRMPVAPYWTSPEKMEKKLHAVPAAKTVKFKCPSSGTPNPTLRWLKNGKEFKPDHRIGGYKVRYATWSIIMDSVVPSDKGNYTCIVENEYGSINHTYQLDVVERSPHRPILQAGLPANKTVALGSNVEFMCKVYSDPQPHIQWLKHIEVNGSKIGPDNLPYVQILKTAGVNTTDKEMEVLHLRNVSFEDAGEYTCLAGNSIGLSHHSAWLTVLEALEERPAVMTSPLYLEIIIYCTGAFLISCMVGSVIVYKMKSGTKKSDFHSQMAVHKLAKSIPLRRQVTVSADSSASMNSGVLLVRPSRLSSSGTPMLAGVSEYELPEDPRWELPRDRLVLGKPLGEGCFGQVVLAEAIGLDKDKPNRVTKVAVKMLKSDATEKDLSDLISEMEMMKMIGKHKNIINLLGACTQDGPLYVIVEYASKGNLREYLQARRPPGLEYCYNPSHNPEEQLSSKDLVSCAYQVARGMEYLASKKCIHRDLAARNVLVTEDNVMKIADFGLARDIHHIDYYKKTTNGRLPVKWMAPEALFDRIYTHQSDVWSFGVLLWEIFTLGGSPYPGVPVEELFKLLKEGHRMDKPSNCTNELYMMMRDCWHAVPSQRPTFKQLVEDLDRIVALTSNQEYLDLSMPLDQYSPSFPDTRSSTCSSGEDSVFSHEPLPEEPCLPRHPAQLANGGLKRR

With `Cc1[nH]c(/C=C2\C(=O)Nc3cccc(-c4ccc(Cl)cc4)c32)c(C)c1C(=O)NCCN1CCCC1` [Example 22, 5-[4-(4-Chloro-phenyl)-2-oxo-1,2-dihydro-indol-3-ylidenemethyl]-2,4-dimethyl-1H-pyrrole-3-carboxylic Acid (2-Pyrrolidin-1-yl-ethyl)-amide], the IC50 against PDGFR turned out to be 1.64 µM; against P38, 13.1 µM; against FGFR1, 0.057 µM.
As to `CCN(CC)CCNC(=O)c1c[nH]c(/C=C2\C(=O)Nc3cccc(-c4ccc(Br)cc4)c32)c1C` [Example 61, 5-[4-(4-Bromo-phenyl)-2-oxo-1,2-dihydro-indol-3-ylidenemethyl]-4-methyl-1H-pyrrole-3-carboxylic Acid (2-Diethylamino-ethyl)-amide], the values for the half-inhibitory concentration (IC50) at PDGFR, against P38 and against FGFR1 were 9.12 µM, 6.3 µM and 0.021 µM, respectively.
In the case of `Cc1cc(C(=O)NCCN2CCCC2)c(/C=C2\C(=O)Nc3cccc(-c4ccc(Br)cc4)c32)[nH]1` [Example 58, 2-[4-(4-Bromo-phenyl)-2-oxo-1,2-dihydro-indol-3-ylidenemethyl]-5-methyl-1H-pyrrole-3-carboxylic Acid (2-Pyrrolidin-1-yl-ethyl)-amide], the IC50 was 16.1 µM against PDGFR, above 10 µM at P38 and 0.25 µM against FGFR1.
`Cc1[nH]c(/C=C2\C(=O)Nc3cccc(-c4ccc(Br)cc4)c32)c(C)c1C(=O)N1C[C@@H](C)N[C@@H](C)C1` [Example 57, 4-(4-Bromo-phenyl)-3-[4-[(cis)-3,5-dimethyl-piperazine-1-carbonyl)-3,5-dimethyl-1H-pyrrol-2-ylmethylene]-1,3-dihydro-indol-2-one]: the half-maximal inhibitory concentration (IC50) against PDGFR was above 20 µM; against P38, above 10 µM; against FGFR1 it was 0.26 µM.
Consider `Cc1[nH]c(/C=C2\C(=O)Nc3cccc(-c4ccc(F)cc4)c32)c(C)c1C(=O)N1CCN(C)CC1` [Example 4, 3-[3,5-Dimethyl-4-(4-methyl-piperazine-1-carbonyl)-1H-pyrrol-2-ylmethylene]-4-(4-fluoro-phenyl)-1,3-dihydro-indol-2-one], for which the half-maximal inhibitory concentration (IC50) against PDGFR was 14.6 µM; against P38 it was above 10 µM; against FGFR1, 0.74 µM.
For `Cc1cc(C(=O)N2CC[C@H](N(C)C)C2)c(/C=C2\C(=O)Nc3cccc(-c4cccc(Cl)c4)c32)[nH]1` [Example 32, 4-(3-Chloro-phenyl)-3-[3-((S)-3-dimethylamino-pyrrolidine-1-carbonyl)-5-methyl-1H-pyrrol-2-ylmethylene]-1,3-dihydro-indol-2-one] the same measures were 11.6 µM, above 10 µM and 0.35 µM.
In the case of `COc1cccc(-c2cccc3c2/C(=C/c2[nH]c(C)c(C(=O)NCCn4ccnn4)c2C)C(=O)N3)c1` [Example 48, 5-[4-(3-Methoxy-phenyl)-2-oxo-1,2-dihydro-indol-3-ylidenemethyl]-2,4-dimethyl-1H-pyrrole-3-carboxylic Acid (2-[1,2,3]Triazol-1-yl-ethyl)-amide], the IC50 on PDGFR was 8.39 µM; at P38, above 10 µM; against FGFR1, 0.6 µM.
Taken in the same sequence, the figures for `Cc1cc(C(=O)N2CC[C@@H](N(C)C)C2)c(/C=C2\C(=O)Nc3cccc(-c4ccc(Cl)cc4)c32)[nH]1` [Example 25, 4-(4-Chloro-phenyl)-3-[3-((R)-3-dimethylamino-pyrrolidine-1-carbonyl)-5-methyl-1H-pyrrol-2-ylmethylene]-1,3-dihydro-indol-2-one] were 11.7 µM, above 10 µM and 0.56 µM.
Taken in the same sequence, the figures for `Cc1[nH]c(/C=C2\C(=O)Nc3cccc(-c4ccc(Br)cc4)c32)c(C)c1C(=O)NCCN(C(C)C)C(C)C` [Example 60, 5-[4-(4-Bromo-phenyl)-2-oxo-1,2-dihydro-indol-3-ylidenemethyl]-2,4-dimethyl-1H-pyrrole-3-carboxylic Acid (2-Diisopropylamino-ethyl)-amide] were 2.37 µM, 7.9 µM and 0.15 µM.
Taken in the same sequence, the figures for `Cc1[nH]c(/C=C2\C(=O)Nc3cccc(-c4cccc(F)c4)c32)c(C)c1C(=O)NCCn1ccnn1` [Example 15, 5-[4-(3-Fluoro-phenyl)-2-oxo-1,2-dihydro-indol-3-ylidenemethyl]-2,4-dimethyl-1H-pyrrole-3-carboxylic Acid (2-[1,2,3]Triazol-1-yl-ethyl)-amide] were 10.1 µM, 4.9 µM and 2.07 µM.
On to `CCN(CC)CCNC(=O)c1c(C)[nH]c(/C=C2\C(=O)Nc3cccc(-c4cccc(F)c4)c32)c1C` [Example 13, 5-[4-(3-Fluoro-phenyl)-2-oxo-1,2-dihydro-indol-3-ylidenemethyl]-2,4-dimethyl-1H-pyrrole-3-carboxylic Acid (2-Diethylamino-ethyl)-amide], for which the figures for the IC50 against PDGFR, against P38 and against FGFR1 were 2.32 µM, above 10 µM and below 0.0091 µM, respectively.
Taken in the same sequence, the figures for `COc1ccc(-c2cccc3c2/C(=C/c2[nH]c(C)c(C(=O)N4C[C@@H](C)N[C@@H](C)C4)c2C)C(=O)N3)cc1` [Example 40, 3-[4-((cis)-3,5-Dimethyl-piperazine-1-carbonyl)-3,5-dimethyl-1H-pyrrol-2-ylmethylene]-4-(4-methoxy-phenyl)-1,3-dihydro-indol-2-one] were 11.1 µM, above 10 µM and 0.19 µM.
Consider `Cc1[nH]c(/C=C2\C(=O)Nc3cccc(-c4ccc(F)cc4)c32)c(C)c1C(=O)NCCN1CCCC1` [Example 6, 5-[4-(4-Fluoro-phenyl)-2-oxo-1,2-dihydro-indol-3-ylidenemethyl]-2,4-dimethyl-1H-pyrrole-3-carboxylic Acid (2-Pyrrolidin-1-yl-ethyl)-amide], for which the IC50 against PDGFR is 2.95 µM; against P38 it was above 10 µM; against FGFR1, 0.057 µM.
